“And” between values parts separate entries of the source, which are not always exact repeats. Identical values can stand only once.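 Compound exposure: 48 hours, 5 concentrations, 96-well plates. At the GI50, growth is halved. TGI denotes the concentration required for complete inhibition of growth.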

We go through seven molecules from PubChem BioAssay (NCI).

Test systems include LOX IMVI melanoma; RXF 393 renal; CCRF-CEM leukemia; HCT-116 colon; SNB-75 CNS; OVCAR-4 ovarian; SNB-19 CNS; NCI-H460 lung; OVCAR-8 ovarian; NCI-H226 lung.
Assay in all cases: NCI anticancer screen, dose series, 48 h

With `Cc1c2ccncc2c(C)c2c1[nH]c1ccc(Cl)cc12`, the TGI was 6 µM and 2.94 µM in the assay on LOX IMVI melanoma; 9.91 µM in the assay on RXF 393 renal; 4.43 µM and 6.3 µM with CCRF-CEM leukemia; 2.98 µM and 5.14 µM with HCT-116 colon; 10 µM and 12.7 µM with SNB-75 CNS; 5.45 µM and 13.4 µM with OVCAR-4 ovarian. Also, the TGI is 8.36 µM and 15.5 µM in the assay with SNB-19 CNS; 4.46 µM and 12.2 µM with NCI-H460 lung; 4.35 µM and 2.62 µM in the assay with OVCAR-8 ovarian; 11 µM and 25.4 µM with NCI-H226 lung. Further, the GI50 was 2.42 µM in the assay with OVCAR-4 ovarian, 3 µM in the assay with SNB-19 CNS, 3.08 µM with NCI-H460 lung and 8.58 µM with NCI-H226 lung.

`O=C1C=Cc2ncccc2C1=O`: the TGI was 26.9 µM with LOX IMVI melanoma; 35.9 µM in the assay on RXF 393 renal; 15.2 µM in the assay on CCRF-CEM leukemia; 31.1 µM with HCT-116 colon; 49.8 µM in the assay with SNB-75 CNS; 17.2 µM in the assay on OVCAR-4 ovarian. Besides, the TGI in the assay with SNB-19 CNS is greater than 100 µM; in the assay with NCI-H460 lung, 38.2 µM; with OVCAR-8 ovarian it was 30.2 µM; in the assay with NCI-H226 lung, greater than 58.7 µM.

As for `C=CC(C)(O)CC/C=C(\CO)C(=O)OC1C(C)OC(O[C@](C)(C=C)CC/C=C(\CO)C(=O)O[C@H]2C[C@@]3(C(=O)OC4OC(CO)C(O)C(O)C4OC4OC(C)C(OC5OC(CO)C(O)C5O)C(OC5OC(CO)C(O)C(O)C5O)C4O)C(CC2(C)C)C2=CCC4[C@@]5(C)CC[C@H](OC6OC(COC7OC(C)C(O)C(O)C7OC7OCC(O)C(O)C7O)C(O)C(O)C6NC(C)=O)C(C)(C)C5CC[C@@]4(C)[C@]2(C)C[C@H]3O)C(O)C1O` (some centres undefined), the GI50 in the assay with LOX IMVI melanoma was 0.162 µM; in the assay with RXF 393 renal, 0.754 µM; in the assay with CCRF-CEM leukemia, 0.125 µM; with HCT-116 colon, 0.143 µM; in the assay with SNB-75 CNS, 0.154 µM; in the assay on OVCAR-4 ovarian, 0.11 µM. Also, the GI50 is 0.107 µM with SNB-19 CNS, 3.72 µM in the assay on NCI-H460 lung, 0.372 µM in the assay on OVCAR-8 ovarian and 0.363 µM in the assay on NCI-H226 lung. Further, the TGI with LOX IMVI melanoma worked out at 0.82 µM; in the assay with RXF 393 renal, 4.03 µM; in the assay with CCRF-CEM leukemia, 7.55 µM; with HCT-116 colon, 6.93 µM; in the assay with SNB-75 CNS, 0.894 µM; in the assay with OVCAR-4 ovarian, 0.47 µM. Besides, the TGI in the assay on SNB-19 CNS stood at 1.12 µM; in the assay with NCI-H460 lung, 9.79 µM; with OVCAR-8 ovarian, 6.45 µM; with NCI-H226 lung, 1.98 µM.

Take `O=C1/C(=C\c2ccccc2)C2OCC=C3CN4CCC56c7ccccc7N1C5C2C3CC46` (centres undefined): the GI50 in the assay with LOX IMVI melanoma was 4.9 µM; with RXF 393 renal, 35.8 µM; with CCRF-CEM leukemia, 6.06 µM; in the assay on HCT-116 colon it was 6 µM; in the assay with SNB-75 CNS, 14.7 µM; with OVCAR-4 ovarian, greater than 100 µM. The GI50 in the assay on SNB-19 CNS is greater than 100 µM; with NCI-H460 lung it was 6.4 µM; with OVCAR-8 ovarian, 85.8 µM; in the assay with NCI-H226 lung, 11.3 µM. For the same molecule, the TGI in the assay on LOX IMVI melanoma was 49.8 µM; in the assay with RXF 393 renal it was greater than 100 µM; in the assay on CCRF-CEM leukemia, greater than 100 µM; in the assay with HCT-116 colon it was greater than 100 µM; in the assay on SNB-75 CNS, greater than 100 µM; in the assay with OVCAR-4 ovarian, greater than 100 µM. Further, the TGI with SNB-19 CNS, with NCI-H460 lung, in the assay on OVCAR-8 ovarian and in the assay on NCI-H226 lung was greater than 100 µM each time.

On to `O=C(/C=C/c1cccc2ccccc12)Nc1ncc(Cc2ccccc2)s1`, for which the GI50 with LOX IMVI melanoma is 0.445 µM; in the assay on RXF 393 renal it was 0.436 µM; in the assay with CCRF-CEM leukemia it was 0.852 µM; in the assay on HCT-116 colon it was 0.46 µM; in the assay with SNB-75 CNS, 0.344 µM; in the assay with OVCAR-4 ovarian, 2.12 µM. In addition, the GI50 in the assay on SNB-19 CNS is 0.971 µM; with NCI-H460 lung, 0.861 µM; with OVCAR-8 ovarian, 1.55 µM; in the assay with NCI-H226 lung, 1.37 µM. For the same molecule, the TGI in the assay with LOX IMVI melanoma is 11 µM; in the assay on RXF 393 renal it was 1.66 µM; in the assay on CCRF-CEM leukemia it was greater than 100 µM; in the assay on HCT-116 colon it was 11.6 µM; in the assay with SNB-75 CNS, 1.55 µM; with OVCAR-4 ovarian it was 5.16 µM. In addition, the TGI is greater than 100 µM in the assay with SNB-19 CNS, 5.19 µM in the assay with NCI-H460 lung, greater than 100 µM with OVCAR-8 ovarian and greater than 100 µM with NCI-H226 lung.

In the case of `Cc1cc(Br)cc(C)c1NC(=O)C(=O)Nn1c(=S)[nH]c2ccccc2c1=O`, the TGI in the assay with LOX IMVI melanoma, in the assay on RXF 393 renal, in the assay on CCRF-CEM leukemia, with HCT-116 colon, in the assay on SNB-75 CNS and in the assay with OVCAR-4 ovarian was greater than 100 µM in each case. In addition, the TGI in the assay with SNB-19 CNS, in the assay on NCI-H460 lung, in the assay with OVCAR-8 ovarian and in the assay on NCI-H226 lung was greater than 100 µM throughout.

For `COc1ccc2c(c1)/C(=N/OC(C)=O)c1c-2cnc2ccccc12`, the GI50 was 19 µM with LOX IMVI melanoma; 26.4 µM with RXF 393 renal; 28.5 µM with CCRF-CEM leukemia; 21 µM in the assay on HCT-116 colon; 37.4 µM in the assay on SNB-75 CNS; 31.7 µM in the assay on OVCAR-4 ovarian. Also, the GI50 with SNB-19 CNS is 36.6 µM; in the assay on NCI-H460 lung, 30.3 µM; with OVCAR-8 ovarian, 38.4 µM; in the assay with NCI-H226 lung, 33.5 µM. Also, the TGI with LOX IMVI melanoma is 38.6 µM; with RXF 393 renal it was 68.5 µM; with CCRF-CEM leukemia it was greater than 100 µM; in the assay on HCT-116 colon, 48.1 µM; in the assay on SNB-75 CNS, greater than 100 µM; in the assay with OVCAR-4 ovarian, 83.6 µM. Moreover, the TGI in the assay on SNB-19 CNS, in the assay with NCI-H460 lung, with OVCAR-8 ovarian and in the assay on NCI-H226 lung was greater than 100 µM throughout.
